Each structure is given as a SMILES string.

We go through six molecules from the supplement of paper PMC11061612.

Test in all cases: Bliss excess, mean over the matrix (fraction); higher = more synergy
For one experiment, the system named is BT-20 (Breast Carcinoma). A digest of the protocol:
(§1)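 After 24 hours at 37°C and 5% CO2 in 1536-well plates, cells in DMEM/F12 or RPMI plus 10% FBS received two-drug dose matrices for 72 hours. Viability came from CellTiter-Glo 2.0 luminescence and was scaled as inhibition, anchored at 0 by vehicle wells and at 1 by blank wells. Combination Emax is taken as the second-highest inhibition in the matrix, and Bliss excess as the observed combination effect less EA + EB − EA·EB, with EA and EB the single-agent effects.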

For experiment [1], the system named is TGBC11TKB (Gastric Carcinoma). A digest of the protocol:
as §1

The test system of experiment [2] is HuP-T3 (Pancreatic Carcinoma). The essentials: as §1
Experiment [3] concerns SCC-9 (Oral Cavity Carcinoma). A digest of the protocol:
as §1

The subject of experiment [4] is EMC-BAC-2 (Non-Small Cell Lung Carcinoma). The essentials: as §1
For experiment [5], the system named is OCUB-M (Breast Carcinoma). The essentials: as §1
Experiment [6] deals with HSC-2 (Oral Cavity Carcinoma). A digest of the protocol:
as §1

Experiment [7] deals with OCUM-1 (Gastric Carcinoma). A digest of the protocol: as §1
For experiment [8], the system named is NCI-H2405 (Lung Adenocarcinoma). A digest of the protocol: as §1
The next experiment deals with RPMI-7951 (Melanoma). The essentials:
as §1

Experiment [9] relates to OVISE (Ovarian Carcinoma). A digest of the protocol: as §1
Experiment [10] deals with LOU-NH91 (Squamous Cell Lung Carcinoma). A digest of the protocol: as §1
Experiment [11] concerns DG-75 (Burkitt's Lymphoma). A digest of the protocol: as §1
Experiment [12] has as its system NCI-H2347 (Lung Adenocarcinoma). A digest of the protocol:
as §1

Another experiment concerns NH-12 (Neuroblastoma). A digest of the protocol: as §1
Experiment [13] relates to JHH-7 (Hepatocellular Carcinoma). A digest of the protocol: as §1
For another experiment, the system named is NB7 (Neuroblastoma). A digest of the protocol:
as §1

Experiment [14] deals with NCI-H513 (Other Solid Carcinomas). A digest of the protocol:
as §1

The subject of experiment [15] is PF-382 (T-Lymphoblastic Leukemia). The essentials: as §1
In experiment [16] the test system is KLE (Endometrial Carcinoma). The essentials: as §1

For the molecule `NC1(C(=O)N[C@@H](CCO)c2ccc(Cl)cc2)CCN(c2ncnc3[nH]ccc23)CC1` [Capivasertib] + CCN(CCO)CCCOc1ccc2c(Nc3cc(CC(=O)Nc4cccc(F)c4)[nH]n3)ncnc2c1 [AZD2811] (first compound max 10 µM, 7x7, partner max 1 µM), the Bliss excess in the experiment with BT-20 (Breast Carcinoma) is -0.0003; in experiment [1], -0.0987; in experiment [2] it was -0.0317; in experiment [3], -0.0281; in experiment [4], -0.0124; in [5] it was -0.0217. Moreover, the Bliss excess is 0.0572 in [6]; 0.0378 in experiment [7]; -0.0535 in experiment [8]; -0.0886 in the experiment on RPMI-7951 (Melanoma); 0.0015 in [9]; -0.0075 in experiment [10]. Further, the Bliss excess in [11] is 0.04; in experiment [12], -0.0369; in the experiment on NH-12 (Neuroblastoma), -0.0439; in [13], -0.0692; with NB7 (Neuroblastoma), 0.0377; in [14], -0.0479. The results for the Bliss excess in [15] and in [16] were -0.0497 and -0.0611, respectively.

As for `COc1cccc(OCCCN)c1-c1cc(Nc2cnc(C#N)cn2)n[nH]1` [Prexasertib] + O=C(c1cc(Cc2n[nH]c(=O)c3ccccc23)ccc1F)N1CCN(C(=O)C2CC2)CC1 [Olaparib] (first compound max 1 µM, 7x7, partner max 10 µM), the Bliss excess with BT-20 (Breast Carcinoma) was 0.0405; in [1], -0.0658; in [2], -0.0595; in experiment [3], -0.0181; in [4] it was -0.0494; in experiment [5], 0.0018. Further, the Bliss excess in [6] was -0.0206; in [7], -0.0645; in [8], -0.0339; with RPMI-7951 (Melanoma) it was -0.0358; in experiment [9] it was -0.0578; in experiment [10], 0.0427. In addition, the Bliss excess in experiment [11] was -0.0819; in [12], -0.0407; in the experiment on NH-12 (Neuroblastoma) it was -0.0746; in [13], -0.0795; in the experiment on NB7 (Neuroblastoma), -0.113; in experiment [14], -0.0162. Moreover, the Bliss excess in experiment [15] was -0.017; in experiment [16], 0.0514.

Turning to `CC1(C)CCC(CN2CCN(c3ccc(C(=O)NS(=O)(=O)c4ccc(NCC5CCOCC5)c([N+](=O)[O-])c4)c(Oc4cnc5[nH]ccc5c4)c3)CC2)=C(c2ccc(Cl)cc2)C1` [Venetoclax] + CN(C)CCCOc1ccc(-c2ccc3ncc4c(c3c2)n(C2CCOCC2)c(=O)n4C)cn1 [AZD0156] (first compound max 1 µM, 7x7, partner max 1 µM), the Bliss excess in the experiment on BT-20 (Breast Carcinoma) is -0.0163; in [1], -0.0022; in [2] it was -0.0925; in experiment [3], -0.0351; in experiment [4] it was -0.0593; in experiment [5], 0.0289. In addition, the Bliss excess in [6] is 0.0307; in [7], -0.0257; in experiment [8], -0.0324; in the experiment on RPMI-7951 (Melanoma), 0; in experiment [9], -0.01; in [10] it was -0.0307. In addition, the Bliss excess is -0.0123 in [11]; -0.0488 in experiment [12]; -0.0978 in the experiment with NH-12 (Neuroblastoma); -0.032 in experiment [13]; 0.0104 in the experiment on NB7 (Neuroblastoma); -0.0142 in experiment [14]. Moreover, the values for the Bliss excess in experiment [15] and in [16] were 0.0446 and -0.145, respectively.

For the molecule `COc1cccc(OCCCN)c1-c1cc(Nc2cnc(C#N)cn2)n[nH]1` [Prexasertib] + CN(C)CCCOc1ccc(-c2ccc3ncc4c(c3c2)n(C2CCOCC2)c(=O)n4C)cn1 [AZD0156] (first compound max 1 µM, 7x7, partner max 1 µM), the Bliss excess was -0.026 with BT-20 (Breast Carcinoma); -0.0009 in experiment [1]; 0.0713 in [2]; -0.0159 in experiment [3]; 0.0756 in experiment [4]; -0.022 in experiment [5]. Moreover, the Bliss excess was -0.0532 in experiment [6]; 0.0558 in experiment [7]; -0.0037 in experiment [8]; -0.0165 with RPMI-7951 (Melanoma); 0.0209 in [9]; -0.0374 in experiment [10]. Besides, the Bliss excess in experiment [11] is -0.0093; in experiment [12] it was -0.0178; in the experiment with NH-12 (Neuroblastoma), 0.0111; in experiment [13], -0.021; in the experiment with NB7 (Neuroblastoma), -0.0194; in experiment [14] it was -0.0071. The Bliss excess is -0.0448 in [15] and 0.002 in experiment [16].

Take `CC1(C)CCC(CN2CCN(c3ccc(C(=O)NS(=O)(=O)c4ccc(NCC5CCOCC5)c([N+](=O)[O-])c4)c(Oc4cnc5[nH]ccc5c4)c3)CC2)=C(c2ccc(Cl)cc2)C1` [Venetoclax] + C1CN(CCC1(C(=O)N[C@@H](CCO)C2=CC=C(C=C2)Cl)N)C3=NC=NC4=C3C=CN4 [Capivasertib] (first compound max 1 µM, 7x7, partner max 3 µM): the Bliss excess in the experiment on BT-20 (Breast Carcinoma) is -0.035; in [1], -0.0374; in experiment [2], -0.0387; in experiment [3] it was -0.0438; in experiment [4] it was -0.116; in [5], -0.0222. Also, the Bliss excess in [6] is -0.0823; in experiment [7] it was -0.0252; in [8] it was -0.0418; with RPMI-7951 (Melanoma) it was -0.0233; in [9], -0.0059; in experiment [10], -0.0805. For the same molecule, the Bliss excess is -0.0146 in experiment [11]; -0.0627 in experiment [12]; -0.0289 with NH-12 (Neuroblastoma); -0.0266 in [13]; -0.0301 in the experiment on NB7 (Neuroblastoma); -0.071 in experiment [14]. Also, the figures for the Bliss excess in experiment [15] and in experiment [16] were -0.0144 and -0.106, respectively.

For the molecule `CC1(C)CCC(CN2CCN(c3ccc(C(=O)NS(=O)(=O)c4ccc(NCC5CCOCC5)c([N+](=O)[O-])c4)c(Oc4cnc5[nH]ccc5c4)c3)CC2)=C(c2ccc(Cl)cc2)C1` [Venetoclax] + CCN(CCO)CCCOc1ccc2c(Nc3cc(CC(=O)Nc4cccc(F)c4)[nH]n3)ncnc2c1 [AZD2811] (first compound max 1 µM, 7x7, partner max 1 µM), the Bliss excess was -0.0005 in the experiment with BT-20 (Breast Carcinoma); 0.0287 in [1]; -0.0309 in experiment [2]; -0.0214 in [3]; -0.0038 in [4]; -0.049 in experiment [5]. Also, the Bliss excess in experiment [6] is -0.0264; in experiment [7], 0.0236; in experiment [8] it was -0.0345; in the experiment on RPMI-7951 (Melanoma), 0.0107; in experiment [9] it was 0.0134; in experiment [10], -0.0477. The Bliss excess was -0.0104 in [11]; -0.053 in experiment [12]; 0.0685 with NH-12 (Neuroblastoma); 0.0033 in [13]; 0.0098 in the experiment on NB7 (Neuroblastoma); -0.04 in [14]. The Bliss excess was 0.0279 in experiment [15] and -0.0629 in [16].
